{"source": "patent US20070276011A1", "about": "“Plasminogen Activator Inhibitor-1 Inhibitor” (priority 2003, published 2007)"}
{"target": "recombinant human PAI-1 (Homo sapiens, UniProt P05121)", "sequence (P05121 24-402)": "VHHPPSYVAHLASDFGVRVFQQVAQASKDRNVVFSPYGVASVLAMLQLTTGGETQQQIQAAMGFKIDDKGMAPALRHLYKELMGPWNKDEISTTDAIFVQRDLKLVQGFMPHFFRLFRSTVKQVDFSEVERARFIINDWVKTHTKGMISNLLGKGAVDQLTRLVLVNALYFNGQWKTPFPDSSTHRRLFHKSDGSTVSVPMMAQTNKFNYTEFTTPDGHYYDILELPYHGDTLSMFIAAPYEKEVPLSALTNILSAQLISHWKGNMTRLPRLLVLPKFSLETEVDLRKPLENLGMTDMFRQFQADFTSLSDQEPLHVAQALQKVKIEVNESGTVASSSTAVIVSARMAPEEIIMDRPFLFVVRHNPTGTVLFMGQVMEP", "assay": "PAI-1 inhibitory activity, Test Method A (tPA fluorogenic substrate, Tris buffer pH8.0, 37 C)", "type": "biochemical", "settings": "25 μM test compound; Test Method A", "experimental": "(§1) To this solution, 50 μL solution of 400 μM fluogenic substrate for tPA (Pyr-Gly-Arg-MCA, Peptide Institute, Inc.) adjusted with the same buffer was added, and reacted for 30 minutes at 37° C. The reaction was stopped by adding 50 μL of 2% acetic acid. Fluorescence was measured at the excitation wavelength=360 nm, emission wavelength=460 or 465 nm using a microplate reader (SPECTRAFLUOR or GENios) by TECAN. The fluorescence intensities in the presence of the PAI-1 as the control (DMSO) or in the absence of the PAI-1 (tPA alone) were taken as 100% and 0% of PAI-1 activities, respectively, and inhibitory ratios of PAI-1 activities in the presence of the test compound were obtained.\n(§2) <Composition of the Tris Buffer (pH8.0)>", "units": {"Inhibitory Ratio at 25 μM (%)": "%"}}
{"smiles": "COC(=O)c1ccc(NC(=O)c2cc(C=C3SC(=O)N(Cc4ccc(Cl)c(Cl)c4)C3=O)ccc2O)cc1O", "note": "[compound 437]", "Inhibitory Ratio at 25 μM (%)": 69}
{"smiles": "COCC1=NN(c2cc(Cl)cc(Cl)c2)C(=O)C1=Cc1ccccc1O", "note": "[compound 523]", "Inhibitory Ratio at 25 μM (%)": ">99"}
{"smiles": "O=C1SC(=Cc2ccc([O-])c([O-])c2)C(=O)N1Cc1ccc(Cl)cc1Cl.[Na+].[Na+]", "note": "[compound 339]", "Inhibitory Ratio at 25 μM (%)": ">99"}
{"smiles": "CCOC(=O)CCC1=NN(c2ccccc2)C(=O)C1=Cc1ccc2c(c1)OCO2", "note": "[compound 512, 4-(3,4-Methylenedioxybenzylidene)-1-phenyl-3-[2-(ethoxycarbonyl)ethyl]-2-pyrazolin-5-one]", "Inhibitory Ratio at 25 μM (%)": 52}
{"smiles": "CC(C)C1=NN(c2ccc(C(=O)O)cc2)C(=O)C1=Cc1ccc(C=Cc2ccccc2)cc1", "note": "[compound 536]", "Inhibitory Ratio at 25 μM (%)": ">99"}
{"smiles": "O=C1C(=Cc2cccc(O)c2)C(c2ccc(O)cc2)=NN1c1cc(Cl)cc(Cl)c1", "note": "[compound 509, 4-(3-Hydroxybenzylidene)-1-(3,5-dichlorophenyl)-3-(4-hydroxyphenyl)-2-pyrazolin-5-one]", "Inhibitory Ratio at 25 μM (%)": ">99"}
{"smiles": "COc1ccc(NC(=O)c2cc(C=C3SC(=O)N(Cc4ccc(-c5ccccc5)cc4)C3=O)ccc2O)cc1OC", "note": "[compound 371, 5-[4-Hydroxy-3-(3,4-dimethoxyphenylcarbamoyl)benzylidene]-3-(4-phenylbenzyl)thiazolidine-2,4-dione]", "Inhibitory Ratio at 25 μM (%)": ">99"}
{"smiles": "COc1ccc(NC(=O)c2cc(C=C3SC(=O)N(Cc4cc(F)cc(F)c4)C3=O)ccc2O)cc1OC", "note": "[compound 385, 5-[4-Hydroxy-3-(3,4-dimethoxyphenylcarbamoyl)benzylidene]-3-(3,5-difluorobenzyl)thiazolidine-2,4-dione]", "Inhibitory Ratio at 25 μM (%)": ">99"}
{"smiles": "O=C1SC(=Cc2ccc3c(c2)OCO3)C(=O)N1Cc1ccc(Cl)cc1Cl", "note": "[compound 336]", "Inhibitory Ratio at 25 μM (%)": 61}
{"smiles": "O=C(Nc1cc(O)cc(C(F)(F)F)c1)c1cc(C=C2SC(=O)N(Cc3ccc(Cl)c(Cl)c3)C2=O)ccc1O", "note": "[compound 459]", "Inhibitory Ratio at 25 μM (%)": ">99"}
{"smiles": "COc1cc(C=C2SC(=O)N(Cc3ccc(Cl)c(Cl)c3)C2=O)cc(C(=O)Nc2ccc(O)c(C)c2)c1O", "note": "[compound 361]", "Inhibitory Ratio at 25 μM (%)": ">99"}
{"smiles": "COc1ccc(-c2ccccc2)cc1NC(=O)c1cc(C=C2SC(=O)N(Cc3ccc(Cl)c(Cl)c3)C2=O)ccc1O", "note": "[compound 455]", "Inhibitory Ratio at 25 μM (%)": ">99"}
{"smiles": "COc1cc(NC(=O)c2cc(C=C3SC(=O)N(Cc4ccc(Cl)c(Cl)c4)C3=O)ccc2O)cc(C(F)(F)F)c1", "note": "[compound 451, 5-{4-hydroxy-3-[3-methoxy-5-(trifluoromethyl)phenylcarbamoyl]-benzylidene}-3-(3,4-dichlorobenzyl)thiazolidine-2,4-dione]", "Inhibitory Ratio at 25 μM (%)": ">99"}
{"smiles": "O=C(Nc1cc(C(F)(F)F)ccc1Cl)c1cc(C=C2SC(=O)N(Cc3ccc(Cl)c(Cl)c3)C2=O)cc(O)c1O", "note": "[compound 469]", "Inhibitory Ratio at 25 μM (%)": ">99"}
{"smiles": "CC(C)C1=NN(c2cc(Cl)cc(Cl)c2)C(=O)C1=Cc1c[nH]cn1", "note": "[compound 508]", "Inhibitory Ratio at 25 μM (%)": 26}
{"smiles": "O=C(O)c1ccc(NC(=O)c2cc(C=C3SC(=O)N(Cc4ccc(Cl)c(Cl)c4)C3=O)ccc2O)cc1", "note": "[compound 419]", "Inhibitory Ratio at 25 μM (%)": ">99"}
{"smiles": "O=C(Nc1cc(C=C2SC(=O)N(Cc3ccc(Cl)c(Cl)c3)C2=O)ccc1O)c1ccc(O)c(O)c1", "note": "[compound 380]", "Inhibitory Ratio at 25 μM (%)": ">99"}
{"smiles": "COCC1=NN(c2ccc([N+](=O)[O-])cc2)C(=O)C1=Cc1cc(C=Cc2ccccc2)ccc1O", "note": "[compound 538, 4-(2-Hydroxy-5-styrylbenzylidene)-1-(4-nitrophenyl)-3-methoxymethyl-2-pyrazolin-5-one]", "Inhibitory Ratio at 25 μM (%)": ">99"}
{"smiles": "O=C(Nc1cccc([N+](=O)[O-])c1)c1cc(C=C2SC(=O)N(Cc3ccc(Cl)c(Cl)c3)C2=O)ccc1O", "note": "[compound 424]", "Inhibitory Ratio at 25 μM (%)": 87}
{"smiles": "O=C1C(=Cc2cc(C=Cc3ccccc3)ccc2O)C(c2ccc(O)cc2)=NN1c1ccc(Cl)cc1", "note": "[compound 530]", "Inhibitory Ratio at 25 μM (%)": ">99"}
{"smiles": "O=C(O)c1cccc(NC(=O)c2cc(C=C3SC(=O)N(Cc4ccc(Cl)c(Cl)c4)C3=O)ccc2O)c1", "note": "[compound 420]", "Inhibitory Ratio at 25 μM (%)": 85}
{"smiles": "COc1ccc(NC(=O)c2cc(C=C3SC(=O)N(Cc4cc(C(F)(F)F)cc(C(F)(F)F)c4)C3=O)ccc2O)cc1OC", "note": "[compound 383, 5-[4-Hydroxy-3-(3,4-dimethoxyphenylcarbamoyl)benzylidene]-3-[3,5-bis(trifluoromethyl)benzyl]thiazolidine-2,4-dione]", "Inhibitory Ratio at 25 μM (%)": 73}
{"smiles": "CC(C)C1=NN(Cc2ccc(Cl)c(Cl)c2)C(=O)C1=Cc1cc(O)c(O)cc1O.N=C(N)NCCC[C@H](N)C(=O)O.N=C(N)NCCC[C@H](N)C(=O)O", "note": "[compound 554, di(L-(+)-arginine) salt of 4-(2,4,5-trihydroxybenzylidene)-1-(3,4-dichlorobenzyl)-3-isopropyl-2-pyrazolin-5-one]", "Inhibitory Ratio at 25 μM (%)": ">99"}
{"smiles": "O=C(Nc1ccc(O)c(O)c1)c1cccc(C=C2SC(=O)N(Cc3ccc(Cl)c(Cl)c3)C2=O)c1", "note": "[compound 388, 5-[3-(3,4-Dihydroxyphenylcarbamoyl)benzylidene]-3-(3,4-dichlorobenzyl)thiazolidine-2,4-dione]", "Inhibitory Ratio at 25 μM (%)": 65}
{"smiles": "CC(C)C1=NN(c2cc(Cl)cc(Cl)c2)C(=O)C1=Cc1cc(C=Cc2ccccc2)ccc1O", "note": "[compound 525]", "Inhibitory Ratio at 25 μM (%)": ">99"}
{"smiles": "Cc1ccc(O)c(NC(=O)c2cc(C=C3SC(=O)N(Cc4ccc(Cl)c(Cl)c4)C3=O)ccc2O)c1", "note": "[compound 457]", "Inhibitory Ratio at 25 μM (%)": ">99"}
{"target": "recombinant human PAI-1 (Homo sapiens, UniProt P05121)", "assay": "PAI-1 inhibitory activity, Test Method A (tPA fluorogenic substrate, Tris buffer pH8.0, 37 C)", "type": "biochemical", "settings": "test compound 25 μM; Test Method A", "experimental": "as §1, §2", "units": {"Inhibitory Ratio at 25 μM (%)": "%"}}
{"smiles": "COC(=O)c1cccc(N2N=C(c3ccccc3)C(=Cc3ccc(Br)o3)C2=O)c1", "note": "[compound 194]", "Inhibitory Ratio at 25 μM (%)": 84}
{"smiles": "O=C1SC(=Cc2ccc(O)c(O)c2)C(=O)N1Cc1ccc(C(F)(F)F)cc1", "note": "[compound 44]", "Inhibitory Ratio at 25 μM (%)": ">99"}
{"smiles": "CCOC1=NN(c2ccc([N+](=O)[O-])cc2)C(=O)C1=Cc1ccc(O)c(O)c1", "note": "[compound 116]", "Inhibitory Ratio at 25 μM (%)": ">99"}
{"smiles": "COC(=O)c1cccc(C=C2C(=O)N(c3cc(Cl)cc(Cl)c3)N=C2C(C)C)c1", "note": "[compound 204, 4-[3-(methoxycarbonyl)benzylidene]-1-(3,5-dichlorophenyl)-3-isopropyl-2-pyrazolin-5-one]", "Inhibitory Ratio at 25 μM (%)": ">99"}
{"smiles": "O=C1SC(=Cc2ccc(O)c(O)c2)C(=O)N1Cc1cccc(Cl)c1", "note": "[compound 31]", "Inhibitory Ratio at 25 μM (%)": ">99"}
{"smiles": "O=C1C(=Cc2cc(O)c(O)cc2O)C(C(F)(F)F)=NN1c1cc(Cl)cc(Cl)c1", "note": "[compound 151]", "Inhibitory Ratio at 25 μM (%)": ">99"}
{"smiles": "COc1ccc(N2C(=O)C(=Cc3ccc(O)c(O)c3)SC2=S)cc1OC", "note": "[compound 76, 5-(3,4-Dihydroxybenzylidene)-3-(3,4-dimethoxyphenyl)rhodanine]", "Inhibitory Ratio at 25 μM (%)": 56}
{"smiles": "O=C1SC(=Cc2cccc(O)c2O)C(=O)N1Cc1cccc(Br)c1", "note": "[compound 34, 5-(2,3-Dihydroxybenzylidene)-3-(3-bromobenzyl)thiazolidine-2,4-dione]", "Inhibitory Ratio at 25 μM (%)": ">99"}
{"smiles": "CCOC1=NN(c2ccc([N+](=O)[O-])cc2)C(=O)C1=Cc1ccc(C)c(OC)c1", "note": "[compound 213]", "Inhibitory Ratio at 25 μM (%)": 40}
{"smiles": "Cc1cccc(N2N=C(C(C)C)C(=Cc3cc(O)c(O)c(O)c3)C2=O)c1", "note": "[compound 157]", "Inhibitory Ratio at 25 μM (%)": 37}
{"smiles": "O=C1C(=Cc2cc(Cl)ccc2O)SC(=S)N1c1ccccc1", "note": "[compound 65]", "Inhibitory Ratio at 25 μM (%)": 21}
{"smiles": "O=C1SC(=Cc2ccc([N+](=O)[O-])c(O)c2)C(=O)N1Cc1ccc(Cl)c(Cl)c1", "note": "[compound 87, 5-(3-hydroxy-4-nitrobenzylidene)-3-(3,4-dichlorobenzyl)-thiazolidine-2,4-dione]", "Inhibitory Ratio at 25 μM (%)": ">99"}
{"smiles": "CC1=NN(c2ccc(Cl)cc2)C(=O)C1=Cc1cc(O)c(O)cc1O", "note": "[compound 224]", "Inhibitory Ratio at 25 μM (%)": 69}
{"smiles": "O=C1SC(=Cc2cc(Br)cc(Br)c2O)C(=O)N1c1ccccc1", "note": "[compound 1]", "Inhibitory Ratio at 25 μM (%)": ">99"}
{"smiles": "CC1=NN(c2ccc(Cl)c(C(=O)O)c2)C(=O)C1=Cc1ccc(-c2cccc(Cl)c2C)o1", "note": "[compound 190]", "Inhibitory Ratio at 25 μM (%)": 81}
{"smiles": "CC(C)C1=NN(c2cc(C(F)(F)F)cc(C(F)(F)F)c2)C(=O)C1=Cc1ccc(O)c(O)c1", "note": "[compound 118, 4-(3,4-Dihydroxybenzylidene)-1-[3,5-bis(trifluoromethyl)phenyl]-3-isopropyl-2-pyrazolin-5-one]", "Inhibitory Ratio at 25 μM (%)": ">99"}
{"smiles": "O=C1SC(=Cc2cc(O)ccc2[N+](=O)[O-])C(=O)N1Cc1ccc(Cl)c(Cl)c1", "note": "[compound 39]", "Inhibitory Ratio at 25 μM (%)": ">99"}
{"smiles": "CC(C)C1=NN(c2cc(Cl)cc(Cl)c2)C(=O)C1=Cc1ccc(Cl)c([N+](=O)[O-])c1", "note": "[compound 206]", "Inhibitory Ratio at 25 μM (%)": 94}
{"smiles": "O=C1C(=Cc2ccc(O)c(O)c2)SC(=S)N1c1ccc(O)c(O)c1", "note": "[compound 77, 5-(3,4-Dihydroxybenzylidene)-3-(3,4-dihydroxyphenyl)rhodanine]", "Inhibitory Ratio at 25 μM (%)": 20}
{"smiles": "Cc1ccc(N2N=C(C(C)C)C(=Cc3cccc(O)c3)C2=O)cc1Cl", "note": "[compound 121]", "Inhibitory Ratio at 25 μM (%)": 80}
{"smiles": "O=C1C(=Cc2cc(Br)cc(Br)c2O)C(O)=NN1c1ccccc1", "note": "[compound 101]", "Inhibitory Ratio at 25 μM (%)": 28}
{"smiles": "O=C1SC(=Cc2ccc(O)c(O)c2)C(=O)N1Cc1cccc([N+](=O)[O-])c1", "note": "[compound 48, 5-(3,4-Dihydroxybenzylidene)-3-(3-nitrobenzyl)thiazolidine-2,4-dione]", "Inhibitory Ratio at 25 μM (%)": 67}
{"smiles": "CCOC1=NN(c2ccc([N+](=O)[O-])cc2)C(=O)C1=Cc1ccc(C(=O)OC)cc1", "note": "[compound 214]", "Inhibitory Ratio at 25 μM (%)": 29}
{"smiles": "CC(C)C1=NN(c2ccc(Cl)c(Cl)c2)C(=O)C1=Cc1ccc(O)c(O)c1", "note": "[compound 140]", "Inhibitory Ratio at 25 μM (%)": ">99"}
{"smiles": "O=C1SC(=Cc2ccc(O)c(O)c2)C(=O)N1Cc1cc(Cl)cc(Cl)c1", "note": "[compound 12]", "Inhibitory Ratio at 25 μM (%)": ">99"}
